Experiment [1] relates to tyrosine hydroxylase positive mesencephalic neurons injured by 6-OHDA. Nature of the experiment: Neuroprotective effect on damage induced by 6-OHDA on culture of mesencephalic neurons. The class given is cell-based. The conditions noted are these: Rattus norvegicus, Neuron; 50 uM; 6-OHDA 15 μM, 48h; read-out: % reversion of TH positive neurons (6-OHDA-mediated degradation of dopaminergic neurons). As for the experimental part:
The protective effect of compounds of the present disclosure was determined on 6-OHDA-mediated injury on mesencephalon neuronal cultures.
(§1) A female Wistar rat (Janvier; France) of 15 days gestation was terminated by cervical dislocation, the fetuses were removed from the uterus and their brains were harvested and placed in ice-cold medium (Leibovitz's L15 medium, Gibco). Only ventral mesencephalic flexure was used for the cell preparations. The midbrain was dissociated by trypsinization. The reaction was stopped, and the suspension was triturated and centrifuged. The pellet of dissociated cells was resuspended in chemically defined medium consisted of Neurobasal (Gibco, 21103049), containing B27 supplement (Gibco, A3582801) and L-glutamine (Gibco, 25030081), 10 ng/ml (BDNF; Pepro Tech, France, 450-02) and 1 ng/ml (GDNF; Pepro Tech, 450-51).
(§2) Viable primary rat embryo mesencephalic cells were counted and seeded on 96-multi-wells plate precoated with poly-L-lysine. Cells were maintained in a humidified incubator at 37° C. in 5% CO2-95% air atmosphere and medium changed on day 2. On day 6, the culture medium was removed and replaced by new media without neurotrophic factors containing the compounds of the present disclosure (50-10 μM) or vehicle (0.1% DMSO). After 1h exposure, injury of mesencephalon neuronal cultures was induced by 6-OHDA (15 μM) for further 48h. A mixture of the growth factors GDNF (1 ng/ml) and BDNF (10 ng/ml) were used as reference compound. On day 8, the tyrosine hydroxylase positive neurons were evaluated. Cultures were fixed 30 min at 4° C. with paraformaldehyde in PBS (4%, Sigma). After, cells were permeabilized with 0.1% Triton X100 for 30 min, saturated with PBS containing 3% of BSA (bovine serum albumin) and incubated 2h with anti-tyrosine hydroxylase antibody (Sigma, 1:10000; clone TH-2) at 1/10000 in PBS containing 0.5% of BSA. Cells were washed three times with PBS containing 0.5% of BSA and incubated 1h with goat anti mouse antibody coupled with AF488 (Invitrogen A11001) diluted at 1/1000 in PBS containing 0.5% of BSA. Finally, nuclei were stained with DAPI (Thermo fisher, D1306) at 1/1000 in PBS containing 0.5% of BSA. After rinsing with PBS, the plate was visualized and examined with Cell Insight HCS (Thermo Scientific) to determine the number of tyrosine hydroxylase positive cells per well.
(§3) The results for each well were expressed as a percentage by setting the density of tyrosine hydroxylase positive cells under control conditions to 100%. Then the result for each condition was reported as mean±SEM from 4 independent cultures.
(§4) A global analysis of the data was performed using a one-way analysis of variance (ANOVA), followed by Fisher's Protected Least Significant Difference when applicable. The level of significance was set to p<0.05.

Experiment [2] relates to tyrosine hydroxylase positive mesencephalic neurons injured by MPP+. Nature of the experiment: Neuroprotective effect on damage induced by MPP+ on culture of mesencephalic neurons. The conditions noted are these: Rattus norvegicus, Neuron, MPP+ 50 μM, 48h, read-out: % reversion of TH positive neurons (MPTP-mediated degradation of dopaminergic neurons). The class given is cell-based.
Excerpt: as §1, with “(Gibco),” for “(Gibco, 21103049),”, “(Gibco)” for “(Gibco, A3582801)”, “(Gibco),” for “(Gibco, 25030081),”, “France)” for “France, 450-02)”, “Tech).” for “Tech, 450-51).”
as §2, with “MPP^+ (50” for “6-OHDA (15”, “Thermo Scientific, 28908).” for “Sigma).”, “DAPI” for “DAPI (Thermo fisher, D1306)”
as §3, §4

Experiment [3] deals with primary fibroblasts (healthy controls and PA, MMA, BCKDK, PDH, VLCAD, LS, PC, GA, VLCFA, KSS, FXN, HD). The experiment is described as follows: Measurement of ROS (H2DCFDA) in primary fibroblasts. The class given is cell-based, human. To be noted: Homo sapiens, Fibroblast, procedure Example 812. The gist of the method: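 Patient and healthy-control primary fibroblasts switched to supplemented DMEM 24 h before assay, then treated with compound (10 μM) plus H2DCFDA (22 μM) for 2 h (PA, MMA lines) or 24 h (other lines). Kinetic fluorescence at 492/527 nm over 60 min; only live cells analysed.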

The subject of experiment [4] is HepG2 cells. The experiment is described as follows: MitoBiogenesis In-Cell ELISA (COX-I, SDH-A). It is filed as cell-based. The conditions noted are these: Homo sapiens, 168 h, 10 uM, 7 days, read-out: % increase in Mitochondrial Biogenesis. From the text:
We determined the effect of compounds of the present disclosure on the levels of two mitochondrial proteins using MitoBiogenesis™ In-Cell ELISA Kit (Abcam ab110216) according to manufacturer's instructions. The two proteins are each subunits of a different oxidative phosphorylation enzyme complex, one protein being subunit I of Complex IV (COX-1), which is mitochondrial (mt)DNA-encoded, and the other being the 70 kDa subunit of Complex II (SDH-A), which is nuclear (n)DNA-encoded. Complex IV includes several proteins which are encoded in the mitochondrion, while the proteins of Complex II are entirely encoded in the nucleus. HepG2 cells (ATCC, HB-8065) were cultured (5% CO2 at 37° C.) and plated in Poly-D-Lysine 384-Well plate (Corning, 356663) at a density of 40,000 cells/mL in 50 μL. Culture and assay media consisted of DMEM (Gibco, 11995-065) supplemented with 1% Penicillin-Streptomycin and 10% FBS (Hyclone, SV30087.03). Cells were allowed to settle for 30 min at room temperature and further incubated overnight (37° C. and 5% CO2) for adherence. Next day, 50-5 μM of the negative control Chloramphenicol (Selleck, S1677), test compounds (50-10 μM) and vehicle DMSO (0.2%) were added at the recommended volumes to the 384-well plate for 7 days without media change using a Tecan compound dispenser. All the solutions and wash buffers were prepared and dispensed according to manufacturer's volumes for a 384-well plate format. Effects of compounds on mtDNA-encoded protein expression (COX-I) and nuclear DNA-encoded mitochondrial protein expression (SDH-A) were expressed as relative signal (nm) to vehicle of a n=2 per conditions.

The test system of experiment [5] is HepG2 cells. Nature of the experiment: Mitochondrial membrane potential (MITO-ID MP detection Kit). The class given is cell-based. The conditions noted are these: Homo sapiens, 168 h, 10 uM, 7 days, read-out: % decrease in Mitochondrial Membrane Potential. The gist of the method: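 Cells plated at 160000 cells/mL in DMEM with 10% FBS and 1% Pen-Strep, adhered overnight at 37° C., 5% CO2. Exposure to test compounds (50-10 μM) or 0.2% DMSO for 7 days without media change; membrane potential measured with MITO-ID MP detection kit per manufacturer.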

This is an account of results in patent US20230107216A1, “PANTETHEINE DERIVATIVES AND USES THEREOF” (Comet Therapeutics, Inc., priority 2018, published 2023).

Like-named read-outs stand apart in the source and are kept apart here. Where only a bound is given, the exact number is not on record here.

As to `CC(C)(CO)[C@@H](O)C(=O)NCCC(=O)NCCSC(=O)[C@@H](N)CCC(=O)O` [Compound 383], the inhibition at 50 µM in experiment [1] is at least 30%. Moreover, the inhibition at 10 µM in experiment [2] is at least 60%; in experiment [3] (BCKD GM00612, Assay Condition A, read-out: Decreased ROS by at least 10%) it was at least 10%.

Regarding `COC(=O)C[C@H](N)C(=O)SCCNC(=O)CCNC(=O)[C@H](O)C(C)(C)CO` [Compound 414], the activation at 10 µM with HepG2 cells [4] amounted to 10%. In addition, the inhibition at 10 µM in experiment [3] (BCKD GM00649, Assay Condition C, read-out: Decreased ROS by at least 10%) was at least 10%; in experiment [3] (BCKD GM00649, Assay Condition C, read-out: Decreased ROS by at least 30%) it was at least 30%; in the experiment on HepG2 cells [5] it was above 20%.
